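Five compound concentrations were applied to cells in 96-well plates for 48 hours; endpoints were derived by simple linear interpolation of the resulting dose-response curve. GI50: concentration for 50% inhibition of growth.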 The source made the active and inactive calls. Cut-off read from the data, not from the text of the source: active = GI50 up to about 1.1 µM and inactive = higher.
Legend:
Experiment in all cases: DTP human tumour cell line panel, 48 h
SK-MEL-2 = tested on: SK-MEL-2
NCI-H460 = tested on: NCI-H460
UACC-257 = tested on: UACC-257
A549 = tested on: A549
NCI/ADR-RES = tested on: NCI/ADR-RES
SK-OV-3 = tested on: SK-OV-3
SK-MEL-5 = tested on: SK-MEL-5
HCT-116 = tested on: HCT-116
OVCAR-8 = tested on: OVCAR-8
SF-268 = tested on: SF-268
OVCAR-4 = tested on: OVCAR-4
HT-29 = tested on: HT-29
MDA-N = tested on: MDA-N
MOLT-4 = tested on: MOLT-4
BT-549 = tested on: BT-549
K562 = tested on: K562
UO-31 = tested on: UO-31
M14 = tested on: M14
SNB-75 = tested on: SNB-75

| Structure (SMILES) | GI50 (SK-MEL-2) | GI50 (NCI-H460) | GI50 (UACC-257) | GI50 (A549) | GI50 (NCI/ADR-RES) | GI50 (SK-OV-3) | GI50 (SK-MEL-5) | GI50 (HCT-116) | GI50 (OVCAR-8) | GI50 (SF-268) | GI50 (OVCAR-4) | GI50 (HT-29) | GI50 (MDA-N) | GI50 (MOLT-4) | GI50 (BT-549) | GI50 (K562) | GI50 (UO-31) | GI50 (M14) | GI50 (SNB-75) |
| --- | --- | --- | --- | --- | --- | --- | --- | --- | --- | --- | --- | --- | --- | --- | --- | --- | --- | --- | --- |
| Nc1nc(-c2cc(-c3cccc4ccccc34)nc(N)n2)cc(-c2cccc3ccccc23)n1 | > 100 µM (inactive) | > 100 µM (inactive) | > 100 µM (inactive) | > 100 µM (inactive) | > 100 µM (inactive) | > 100 µM (inactive) | > 100 µM (inactive) | > 100 µM (inactive) | > 100 µM (inactive) | > 100 µM (inactive) | > 100 µM (inactive) | > 100 µM (inactive) | > 100 µM (inactive) | > 100 µM (inactive) | > 100 µM (inactive) | > 100 µM (inactive) | > 100 µM (inactive) | > 100 µM (inactive) | – |
| COc1cc2c(C)cc(O)cc2c2cc(O)c(C)cc12 | 14.8 µM (inactive) | 2.56 µM (inactive) | 12.5 µM (inactive) | 12.9 µM (inactive) | 13.5 µM (inactive) | 12.9 µM (inactive) | 10.5 µM (inactive) | 10.7 µM (inactive) | 14.4 µM (inactive) | 13.7 µM (inactive) | 11.3 µM (inactive) | 14.7 µM (inactive) | 10.2 µM (inactive) | 5.83 µM (inactive) | 12.7 µM (inactive) | 2.48 µM (inactive) | 9.66 µM (inactive) | 1.94 µM (inactive) | – |
| CCn1c(O)c(C(=O)NC(C)c2ccc([N+](=O)[O-])cc2)c(=O)n(CC)c1=S (stereo unspecified) | 1.02 µM (active) | 2.41 µM (inactive) | 3.85 µM (inactive) | 1.52 µM (inactive) | – | 3.09 µM (inactive) | 3.13 µM (inactive) | 1.64 µM (inactive) | – | 3.92 µM (inactive) | 1.48 µM (inactive) | 2.34 µM (inactive) | 3.59 µM (inactive) | 2.05 µM (inactive) | 2.21 µM (inactive) | 0.951 µM (active) | 1.92 µM (inactive) | 2.6 µM (inactive) | 2.16 µM (inactive) |
| O=C1CSc2ccnc(=O)n21 | – | > 100 µM (inactive) | > 100 µM (inactive) | > 100 µM (inactive) | – | > 100 µM (inactive) | > 100 µM (inactive) | > 100 µM (inactive) | > 100 µM (inactive) | > 100 µM (inactive) | > 100 µM (inactive) | – | > 100 µM (inactive) | > 100 µM (inactive) | > 100 µM (inactive) | – | > 100 µM (inactive) | > 100 µM (inactive) | 93.5 µM (inactive) |
| CC(C)=CCC/C(C)=C/COC(C)(C)C1=CCC(C)CC1.CC(C)=CCC/C(C)=C/COC1CC(C)CCC1=C(C)C (stereo unspecified) | – | > 100 µM (inactive) | 63.8 µM (inactive) | > 100 µM (inactive) | – | > 100 µM (inactive) | > 100 µM (inactive) | > 100 µM (inactive) | > 100 µM (inactive) | > 100 µM (inactive) | > 100 µM (inactive) | > 100 µM (inactive) | > 100 µM (inactive) | 18.2 µM (inactive) | > 100 µM (inactive) | – | > 100 µM (inactive) | > 100 µM (inactive) | > 100 µM (inactive) |
| CCC1c2[nH]c3ccccc3c2C[C@H]2C(=O)N3CCC[C@H]3C(=O)N12 (stereo partly specified) | > 100 µM (inactive) | – | 48.6 µM (inactive) | > 100 µM (inactive) | > 100 µM (inactive) | > 100 µM (inactive) | 30.4 µM (inactive) | 60.7 µM (inactive) | > 100 µM (inactive) | > 100 µM (inactive) | > 100 µM (inactive) | > 100 µM (inactive) | > 100 µM (inactive) | 97.7 µM (inactive) | > 100 µM (inactive) | > 100 µM (inactive) | > 100 µM (inactive) | > 100 µM (inactive) | – |

— ChEMBL document CHEMBL1201862, “PubChem BioAssay data set” (2004)
